The experiment addresses T1, HIV protease (Human immunodeficiency virus type 1 group M subtype B, UniProt P04585).
T1 construct: A third viral enzyme known as protease then cleaves the polyproteins
Put plainly: Enzymatic Assay for Determining the Inhibition Constant (Ki) of Synthetic Compounds Targeting the HIV Protease (fluorometric FRET assay). The class given is biochemical. Summed up:
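Fluorometric FRET assay following protease cleavage of an EDANS/DABCYL-labelled substrate. Initial velocities without (Vo) and with inhibitor (Vi) measured; Ki derived from the Henderson equation using inhibitor and substrate concentrations and Km.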

[1] abbreviates: Table 1, compounds of formula I, read-out: Ki (anti-protease activity).

Each structure is given as a SMILES string. Counter-ions that a name gives are not always drawn. Like-named read-outs stand apart in the source and are kept apart here. Where only a bound is given, the exact number is not on record here.

The values below come from patent US6610689B2, “HIV protease inhibitors based on amino acid derivatives” (priority 2001, dated 2003).

Broadly, the Ki is the equilibrium dissociation constant of an inhibitor or competing ligand from its target. For the compound `Cc1ccc(S(=O)(=O)N[C@@H](Cc2ccccc2)C(=O)NCCC[C@@H](C(=O)O)N(CC(C)C)S(=O)(=O)c2ccc(C)cc2)cc1` [Example 154, Nα-Isobutyl-Nα-(4-methylbenzenesulfonyl)-Nε-[N′α-(4-methylbenzenesulfonyl)-L-phenylalanyl]-L-ornithine], the Ki is greater than 300 nM.
Regarding `Cc1ccc(S(=O)(=O)N(CC(C)C)[C@H](CO)CCCCNC(=O)CN(Cc2ccccc2)c2ccccc2)cc1` [Example 156, (2S) 2-N-Isobutyl-2-N-(4-methylbenzenesulfonyl)-6-N-(N′α-benzyl-N′α-phenylglycyl)-2,6-diaminohexanol], affinity was put at a Ki of 7.6 nM.
The same measure, in the same setting: for `Cc1ccc(S(=O)(=O)N(CC(C)C)[C@H](CO)CCCCNC(=O)CN(Cc2ccccc2)C(=O)c2ccccc2)cc1` [Example 158, (2S) 2-N-Isobutyl-2-N-(4-methylbenzenesulfonyl)-6-N-(N′α-benzoyl-N′α-benzylglycyl)-2,6-diaminohexanol] the value was 95 nM; for `Cc1ccc(S(=O)(=O)N(CC(=O)NCCCC[C@@H](CO)N(CC(C)C)S(=O)(=O)c2ccc(C)cc2)Cc2ccccc2)cc1` [Example 159, (2S) 2-N-Isobutyl-2-N-(4-methylbenzenesulfonyl)-6-N-[N′α-benzyl-N′α-(4-methylbenzenesulfonyl)glycyl]-2,6-diaminohexanol], 101 nM.
As for `Cc1ccc(S(=O)(=O)N(CC(C)C)[C@H](CO)CCCCNC(=O)CN(CCc2ccccc2)c2ccccc2)cc1` [Example 160, (2S) 2-N-Isobutyl-2-N-(4-methylbenzenesulfonyl)-6-N-(N′α-phenethyl-N′α-phenylglycyl]-2,6-diaminohexanol], the Ki under setting [1] was 52 nM.
In turn, `Cc1ccc(S(=O)(=O)N(CC(C)C)[C@H](CO)CCCCNC(=O)[C@H](Cc2c[nH]c3ccccc23)NS(=O)(=O)c2ccc(N)cc2)cc1` [Example 161, (2S,2′S) 2-N-Isobutyl-2-N-(4-methylbenzenesulfonyl)-6-N-[N′α-(4-aminobenzenesulfonyl)-S-tryptophanyl]-2,6-diaminohexanol] gave an inhibition constant (Ki) of 1.4 nM.
The compound `COc1ccc(CC(=O)N[C@@H](Cc2ccccc2)C(=O)NCCCC[C@@H](CO)N(CC(C)C)S(=O)(=O)c2ccc(C)cc2)cc1` [Example 162, (2S,2′S) 2-N-Isobutyl-2-N-(4-methylbenzenesulfonyl)-6-N-[N′α-(4-methoxyphenylacetyl)-S-phenylalanyl]-2,6-diaminohexanol] yielded a Ki of 1.2 nM.
In turn, `COc1ccc(CC(=O)N[C@@H](Cc2ccccc2)C(=O)NCCCC[C@@H](C(=O)O)N(CC(C)C)S(=O)(=O)c2ccc(N)cc2)cc1` [Example 163, Nα-(4-Aminobenzenesulfonyl)-Nα-isobutyl-Nε-[N′α-(4-methoxyphenylacetyl)-L-phenylalanyl]-L-lysine] had a Ki of 0.27 nM.
On the same count and under the same terms, for `COc1ccc(CC(=O)N[C@@H](Cc2c[nH]c3ccccc23)C(=O)NCCCC[C@@H](C(=O)O)N(CC(C)C)S(=O)(=O)c2ccc(C)cc2)cc1` [Example 164, Nα-Isobutyl-Nα-(4-methylbenzenesulfonyl)-Nε-[N′α-(4-methoxyphenylacetyl)-L-tryptophanyl]-L-lysine] the value was 0.32 nM.
Take `COc1ccc(CC(=O)N[C@@H](Cc2c[nH]c3ccccc23)C(=O)NCCCC[C@@H](CO)N(CC(C)C)S(=O)(=O)c2ccc(C)cc2)cc1` [Example 165, (2S,2′S) 2-N-Isobutyl-2-N-(4-methylbenzenesulfonyl)-6-N-[N′α-(4-methoxyphenylacetyl)-S-tryptophanyl]-2,6-diaminohexanol]: the Ki came to 1.1 nM.
The same measure, in the same setting: the result for `CC(C)CN([C@H](CO)CCCCNC(=O)[C@H](Cc1c[nH]c2ccccc12)NS(=O)(=O)c1cccs1)S(=O)(=O)c1ccc(N)cc1` [Example 166, (2S,2′S) 2-N-(4-Aminobenzenesulfonyl)-2-N-isobutyl-6-N-[N′α-(2-thiophenesulfonyl)-S-tryptophanyl]-2,6-diaminohexanol] reads 1 nM; that for `CC(C)CN([C@H](CO)CCCCNC(=O)[C@H](Cc1c[nH]c2ccccc12)NS(=O)(=O)c1ccccc1)S(=O)(=O)c1ccc(N)cc1` [Example 167, (2S,2′S) 2-N-(4-Aminobenzenesulfonyl)-2-N-isobutyl-6-N-(N′α-benzenesulfonyl-S-tryptophanyl)-2,6-diaminohexanol], 1.5 nM.
Still for that read-out and setting: the result for `CC(=O)N[C@@H](Cc1c[nH]c2ccccc12)C(=O)NCCCC[C@@H](CO)N(CC(C)C)S(=O)(=O)c1ccc(N)cc1` [Example 168, (2S,2′S) 2-N-(4-Aminobenzenesulfonyl)-2-N-isobutyl-6-N-(N′α-acetyl-S-tryptophanyl)-2,6-diaminohexanol] reads 3.8 nM; that for `CC(C)CN([C@H](CO)CCCCNC(=O)[C@H](Cc1c[nH]c2ccccc12)NC(=O)C(C)(C)C)S(=O)(=O)c1ccc(N)cc1` [Example 169, (2S,2′S) 2-N-(4-Aminobenzenesulfonyl)-2-N-isobutyl-6-N-(N′α-pivaloyl-S-tryptophanyl)-2,6-diaminohexanol], 1.2 nM.
As to `CC(C)CN([C@H](CO)CCCCNC(=O)[C@H](Cc1c[nH]c2ccccc12)NC(=O)N1CCOCC1)S(=O)(=O)c1ccc(N)cc1` [Example 170, (2S,2′S) 2-N-(4-Aminobenzenesulfonyl)-2-N-isobutyl-6-N-[N′α-(4-morpholinecarbonyl)-S-tryptophanyl]-2,6-diaminohexanol], the Ki under setting [1] was determined as 1.1 nM.
Turning to `Cc1ccc(S(=O)(=O)N(CC(C)C)[C@H](CO)CCCCNC(=O)[C@H](Cc2c[nH]c3ccccc23)NC(=O)N2CCOCC2)cc1` [Example 171, (2S,2′S) 2-N-Isobutyl-2-N-(4-methylbenzenesulfonyl)-6-N-[N′α-(4-morpholinecarbonyl)-S-tryptophanyl]-2,6-diaminohexanol], the affinity, expressed as Ki, was 7.9 nM.
Take `COc1ccc(S(=O)(=O)N(CC(C)C)[C@H](CO)CCCCNC(=O)[C@H](Cc2c[nH]c3ccccc23)NC(C)=O)cc1` [Example 172, (2S,2′S) 2-N-Isobutyl-2-N-(4-methoxybenzenesulfonyl)-6-N-(N′α-acetyl-S-tryptophanyl)-2,6-diaminohexanol]: the inhibition constant Ki is greater than 300 nM.
Still for that read-out and setting: for `COc1ccc(S(=O)(=O)N(CC2CCCC2)[C@H](CO)CCCCNC(=O)[C@H](Cc2c[nH]c3ccccc23)NC(C)=O)cc1` [Example 173, (2S,2′S) 2-N-Cyclopentylmethyl-2-N-(4-methoxybenzenesulfonyl)-6-N-(N′α-acetyl-S-tryptophanyl)-2,6-diaminohexanol] the value was 11 nM.
On the same count and under the same terms, for `COc1ccc(CN(CC(=O)NCCCC[C@@H](C(=O)O)N(CC(C)C)S(=O)(=O)c2ccc(C)cc2)c2ccccc2)cc1` [Example 174, Nα-Isobutyl-Nα-(4-methylbenzenesulfonyl)-Nε-[N′α-(4-methoxybenzyl)-N′α-phenylglycyl]-L-lysine] the value was 1.4 nM.
The same measure, in the same setting: the result for `COc1ccc(CN(CC(=O)NCCCC[C@@H](CO)N(CC(C)C)S(=O)(=O)c2ccc(C)cc2)c2ccccc2)cc1` [Example 175, (2S) 2-N-Isobutyl-2-N-(4-methylbenzenesulfonyl)-6-N-[N′α-(4-methoxybenzyl)-N′α-phenylglycyl]-2,6-diaminohexanol] reads 6.3 nM; that for `COc1ccc(CN(CC(=O)NCCCC[C@@H](CO)N(CC(C)C)S(=O)(=O)c2ccc(N)cc2)c2ccccc2)cc1` [Example 176, (2S) 2-N-(4-Aminobenzenesulfonyl)-2-N-isobutyl-6-N-[N′α-(4-methoxybenzyl)-N′α-phenylglycyl]-2,6-diaminohexanol], 2.4 nM; that for `COC(=O)N[C@@H](Cc1ccccc1)C(=O)NCCCC[C@@H](CO)N(CC(C)C)S(=O)(=O)c1ccc(N)cc1` [Example 177, (2S,2′S) 2-N-(4-Aminobenzenesulfonyl)-2-N-isobutyl-6-N-(N′α-methoxycarbonyl-S-phenylalanyl)-2,6-diaminohexanol], 6.6 nM.
Turning to `COC(=O)N[C@@H](Cc1c[nH]c2ccccc12)C(=O)NCCCC[C@@H](CO)N(CC(C)C)S(=O)(=O)c1ccc(N)cc1` [Example 178, (2S,2′S) 2-N-(4-Aminobenzenesulfonyl)-2-N-isobutyl-6-N-(N′α-methoxycarbonyl-S-tryptophanyl)-2,6-diaminohexanol], the inhibition constant Ki came out at 2 nM.
The same measure, in the same setting: for `CC(C)CN([C@H](CO)CCCCNC(=O)[C@H](Cc1c[nH]c2ccccc12)NS(=O)(=O)c1ccc([N+](=O)[O-])cc1)S(=O)(=O)c1ccc(N)cc1` [Example 179, (2S,2′S) 2-N-(4-Aminobenzenesulfonyl)-2-N-isobutyl-6-N-[N′α-(4-nitrobenzenesulfonyl)-S-tryptophanyl]-2,6-diaminohexanol] the value was 32 nM.
The same measure, in the same setting: for `CC(C)CN([C@H](CO)CCCCNC(=O)[C@H](Cc1ccccc1)NC(=O)N1CCOCC1)S(=O)(=O)c1ccc(N)cc1` [Example 180, (2S,2′S) 2-N-(4-Aminobenzenesulfonyl)-2-N-isobutyl-6-N-[N′α-(4-morpholinecarbonyl)-S-phenylalanyl]-2,6-diaminohexanol] the value was 2.4 nM.
`CC(C)CN(CC(=O)NCCCC[C@@H](CO)N(CC(C)C)S(=O)(=O)c1ccc(N)cc1)c1ccccc1` [Example 181, (2S) 2-N-(4-Aminobenzenesulfonyl)-2-N-isobutyl-6-N-(N′α-isobutyl-N′α-phenylglycyl)-2,6-diaminohexanol]: the Ki under setting [1] stood at 16 nM.
In the case of `CC(C)CN([C@H](CO)CCCCNC(=O)CN(Cc1ccccc1)c1ccccc1)S(=O)(=O)c1ccc(N)cc1` [Example 182, (2S) 2-N-(4-Aminobenzenesulfonyl)-2-N-isobutyl-6-N-(N′α-benzyl-N′α-phenylglycyl)-2,6-diaminohexanol], the inhibition constant Ki was determined as 2.4 nM.
Turning to `Cc1ccc(S(=O)(=O)N(CC(C)C)[C@H](CO)CCCCNC(=O)[C@@H](N)Cc2c[nH]c3ccccc23)cc1` [Example 183, (2S,2′S) 2-N-Isobutyl-2-N-(4-methylbenzenesulfonyl)-6-N-(S-tryptophanyl)-2,6-diaminohexanol Trifluoroacetic Acid Salt], under setting [1], the inhibitory constant (Ki) came out at 4.4 nM.
In turn, `CC(C)CN([C@H](CO)CCCCNC(=O)[C@H](Cc1c[nH]c2ccccc12)NC(=O)C(C)C)S(=O)(=O)c1ccc(N)cc1` [Example 184, (2S,2′S) 2-N-(4-Aminobenzenesulfonyl)-2-N-isobutyl-6-N-(N′α-isobutyryl-S-tryptophanyl)-2,6-diaminohexanol] displayed an inhibitory constant (Ki) of 1.6 nM.
